“And” between values parts separate entries of the source, which are not always exact repeats. Identical values can stand only once.
Test system: CD-1 mice
Assay: Acute toxicity of intraperitoneal bolus doses in CD-1 mice
Format: in vivo
Details: for tubular dilation: after the 30 day observation period
Description: 1.2.8 Animals Female CD-1 mice (Body weight: ˜25 g; Age: 7 week old) were purchased, from Charles River Laboratories (Willmington, Mass., USA). MMTV Neu-mice [FVB/N-TgN(MMTV neu)202MUL; Jackson Laboratory, Bar Harbor, Me.] were bred to produce multiple litters. All mice were housed in microisolator cages (Lab Products, Inc., Maywood, N.Y., USA) containing autoclaved bedding in a controlled specific pathogen-free (SPF) environment (12-h light/12-h dark photoperiod, 22±1° C., 60±10% relative humidity), which is fully accredited by the USDA (United States Department of Agriculture). Adult male Lewis rats (Body weight: ˜160 g) were obtained from the specific pathogen-free (SPF) breeding facilities of Harlan Sprague Dawley (Indianapolis, Id., USA) at 14 weeks of age. All husbandry and experimental contact made with the mice and rats maintained SPF conditions. The rats were kept in microisolater cages (Allentown Caging Equipment Co., Inc., Allentown, N.J., USA) containing autoclaved food, water, and bedding. Animal studies were approved by Parker Hughes Institute Animal Care and Use Committee and all animal care procedures 1.5 conformed to the Guide for the Care and Use of Laboratory Animals (National Research Council, National Academy Press, Washington D.C. 1996, USA).
The toxicity profile of Compound 003 in CD-1 mice and Lewis rats was examined, using standard procedures as previously reported for other experimental drugs (Uckun, et al., 2003, Arzneimittelforschun. 53:357; Uckun, et al., 2002, Clin Cancer Res. 8: 1224; Uckun, et al., 2002, Antimicrob Agents Chemother. 46:3428). In brief, mice and rats were treated with intraperitoneal injections of vehicle or Compound 003 at multiple dose levels. Compound 003 was administered as a 0.2 mL (for mice) or 0.5 mL (for rats) bolus injection containing 10% DMSO as a vehicle. Animals were allowed free access to autoclaved standard pellet food and tap water throughout the experiments and monitored daily for morbidity and mortality. Animals were electively sacrificed on day 7 or day 30 to determine the toxicity of Compound 003 by examining their blood chemistry profiles, blood counts, and evaluating multiple organs for the presence of toxic lesions. Blood was collected by intracardiac puncture following anesthesia with ketamine:xylazine and immediately heparinized. The blood chemistry profiles were examined using a Synchron CX5CE Chemical Analyzer (Beckman Instruments, Inc., Fullerton, Calif., USA). Blood counts (red blood cells [RBC], white blood cells [WBC] and platelets [Plt]) were determined using a HESKA Vet ABC-Diff Hematology Analyzer (HESKA Corporation, Fort Collins, Colo., USA). Absolute neutrophil counts (ANC) and absolute lymphocyte counts (ALC) were calculated from WBC values after determining the percentages of neutrophils and lymphocytes by a manual differential count. At the time of necropsy, […] from mice (bone, bone marrow, brain, cecum, heart, kidney, large intestine, liver, lung, lymph node, ovary, pancreas, skeletal muscle, skin, small intestine, spleen, stomach, thymus, thyroid gland, urinary bladder, and uterus, as available) and 21 different tissues from rats (bone, bone marrow, brain, coagulating gland, epididymis, heart, large intestine, small intestine, kidney, liver, lung, pancreas, peripheral nerve/spinal nerve, skeletal muscle, skin, spinal cord, spleen, stomach, testes, thymus, urinary bladder) were collected within 15 minutes after sacrifice, gross pathological findings were documented, organs were preserved in 10% neutral phosphate buffered formalin, and processed for histopathological examination. For histopathologic studies, formalin fixed tissues were dehydrated and embedded in paraffin by routine methods. Glass slides with affixed 4-5 micron tissue sections were prepared and stained with Hemotoxylin and Eosin (H&E). […]

[1] = 40 mg/kg single i.p. bolus, Day 7
[2] = 40 mg/kg single i.p. bolus, Day 30
[3] = 80 mg/kg single i.p. bolus, Day 7
[4] = 80 mg/kg single i.p. bolus, Day 30

SMILES: COC(=O)C(C)NP(=O)(OCC1OC(n2cc(C)c(=O)[nH]c2=O)CC1N=[N+]=[N-])Oc1ccc(OC)cc1 (stereo not shown) [Compound 003, 3′-azidothymidine 5′-[p-methoxyphenylmethoxyalaninyl phosphate]]
- Albumin [1]: 1.5 ± 0.0 g/dL
- Ammonia [1]: 366.8 ± 23.7 µmol/L
- Amylase [1]: 1597.8 ± 100.0 U/L
- BUN [1]: 27.6 ± 0.7 mg/dL
- Calcium [1]: 8.8 ± 0.2 mg/dL
- Creatinine [1]: 0.5 ± 0.1 mg/dL
- Mean Weight Change (g ± SEM) [1]: -0.06 ± 0.21 g
- Mean Weight Change [%] [1]: (−0.2 ± 0.9%)
- Morbidity [1]: 0/20
- Phosphate [1]: 7.0 ± 0.2 mg/dL
- RBC [1]: 9.8 ± 0.3 ×10^12/L
- Total Bilirubin [1]: 0.7 ± 0.2 mg/dL
- Total Protein [1]: 4.5 ± 0.1 g/dL
- Toxic Organ Lesions [1]: 0/20
- Triglycerides [1]: 134.7 ± 21.6 mg/dL
- WBC [1]: 7.4 ± 0.7 ×10^9/L
- Weight Gain [1]: 9/20
- Weight Loss [1]: 11/20
- ALC [2]: 4.7 ×10^9/L and 4.7 ± 0.0 ×10^9/L
- ANC [2]: 1.4 ± 0.0 ×10^9/L
- AST [2]: 198.5 ± 51.8 IU/L
- Albumin [2]: 1.2 ± 0.0 g/dL
- Ammonia [2]: 139.2 ± 8.3 µmol/L
- Amylase [2]: 2153.7 ± 411.4 U/L
- BUN [2]: 20.5 ± 0.8 mg/dL
- Calcium [2]: 7.2 ± 0.2 mg/dL
- Creatinine [2]: 0.3 ± 0.0 mg/dL
- Mean Weight Change (g ± SEM) [2]: 2.34 ± 0.35 g
- Mean Weight Change [%] [2]: (9.6 ± 1.4%)
- Morbidity [2]: 0/20
- Phosphate [2]: 5.9 ± 0.3 mg/dL
- RBC [2]: 9.1 ± 0.1 ×10^12/L
- Total Bilirubin [2]: 0.5 ± 0.1 mg/dL
- Total Protein [2]: 3.9 ± 0.1 g/dL
- Toxic Organ Lesions [2]: 0/20
- Triglycerides [2]: 74.9 ± 5.0 mg/dL
- WBC [2]: 6.2 ± 0.7 ×10^9/L
- Weight Gain [2]: 18/20
- Weight Loss [2]: 2/20
- tubular dilation (40 mg/kg): 1/20
- ALC [3]: 6.7 ± 0.0 ×10^9/L
- ANC [3]: 2.4 ± 0.0 ×10^9/L
- AST [3]: 111.4 ± 7.8 IU/L
- Albumin [3]: 1.5 ± 0.1 g/dL
- Ammonia [3]: 293.1 ± 23.4 µmol/L
- Amylase [3]: 1424.6 ± 37.1 U/L
- BUN [3]: 27.7 ± 0.9 mg/dL
- Calcium [3]: 9.1 ± 0.2 mg/dL
- Creatinine [3]: 0.3 ± 0.0 mg/dL
- Mean Weight Change (g ± SEM) [3]: 0.09 ± 0.20 g
- Mean Weight Change [%] [3]: (0.4 ± 0.8%)
- Morbidity [3]: 0/20
- Phosphate [3]: 6.0 ± 0.2 mg/dL
- RBC [3]: 9.3 ± 0.2 ×10^12/L
- Total Bilirubin [3]: 0.8 ± 0.2 mg/dL
- Total Protein [3]: 4.9 ± 0.2 g/dL
- Toxic Organ Lesions [3]: 0/20
- Triglycerides [3]: 197.6 ± 34.7 mg/dL
- WBC [3]: 9.5 ± 0.9 ×10^9/L
- Weight Gain [3]: 11/20
- Weight Loss [3]: 9/20
- ALC [4]: 3.4 ×10^9/L and 3.4 ± 0.0 ×10^9/L
- ANC [4]: 1.6 ± 0.0 ×10^9/L
- AST [4]: 154.2 ± 33.8 IU/L
- Albumin [4]: 1.2 ± 0.0 g/dL
- Ammonia [4]: 178.4 ± 17.9 µmol/L
- Amylase [4]: 1397.1 ± 339.3 U/L
- BUN [4]: 26.1 ± 1.3 mg/dL
- Calcium [4]: 7.7 ± 0.2 mg/dL
- Creatinine [4]: 0.3 ± 0.0 mg/dL
- Mean Weight Change (g ± SEM) [4]: 3.24 ± 0.29 g
- Mean Weight Change [%] [4]: (13.4 ± 1.2%)
- Morbidity [4]: 0/20
- Phosphate [4]: 5.8 ± 0.4 mg/dL
- RBC [4]: 9.4 ± 0.2 ×10^12/L
- Total Bilirubin [4]: 0.6 ± 0.0 mg/dL
- Total Protein [4]: 4.1 ± 0.1 g/dL
- Toxic Organ Lesions [4]: 0/20
- Triglycerides [4]: 85.6 ± 9.5 mg/dL
- WBC [4]: 5.3 ± 0.5 ×10^9/L
- Weight Gain [4]: 20/20
- Weight Loss [4]: 0/20
- tubular dilation (80 mg/kg): 1/20
- Kidney tubular degeneration, share of drug-treated mice (40 and 80 mg/kg, following the 7 day period): ~50%
- leukopenia / lymphocyte depletion (day 30, 10-80 mg/kg): causes leukopenia in a dose-dependent fashion due to a selective depletion of lymphocytes
- overall toxicity (histologic evaluation) (doses up to and including 80mg/kg): nontoxic
- hematologic toxicity, renal toxicity, hepatotoxicity (highest dose level of 80 mg/kg/day): no evidence of hematologic toxicity renal toxicity, or hepatotoxicity
- LD10 (single i.p. bolus, not reached at highest dose): > 80 mg/kg/day
